The text below walks through data of PMC12631574, “Structure–activity relationships of hydrophobic small molecule irreversible inhibitors of tissue transglutaminase” (RSC Medicinal Chemistry, 2025).

In data set [1] the target is T1, tissue transglutaminase (TG2), C-terminal His-tag TG2 (Homo sapiens, UniProt P21980).
T1 construct: host or cells: Novagen Rosetta 2 (DE3) E. coli
T1 sequence (P21980 1-687): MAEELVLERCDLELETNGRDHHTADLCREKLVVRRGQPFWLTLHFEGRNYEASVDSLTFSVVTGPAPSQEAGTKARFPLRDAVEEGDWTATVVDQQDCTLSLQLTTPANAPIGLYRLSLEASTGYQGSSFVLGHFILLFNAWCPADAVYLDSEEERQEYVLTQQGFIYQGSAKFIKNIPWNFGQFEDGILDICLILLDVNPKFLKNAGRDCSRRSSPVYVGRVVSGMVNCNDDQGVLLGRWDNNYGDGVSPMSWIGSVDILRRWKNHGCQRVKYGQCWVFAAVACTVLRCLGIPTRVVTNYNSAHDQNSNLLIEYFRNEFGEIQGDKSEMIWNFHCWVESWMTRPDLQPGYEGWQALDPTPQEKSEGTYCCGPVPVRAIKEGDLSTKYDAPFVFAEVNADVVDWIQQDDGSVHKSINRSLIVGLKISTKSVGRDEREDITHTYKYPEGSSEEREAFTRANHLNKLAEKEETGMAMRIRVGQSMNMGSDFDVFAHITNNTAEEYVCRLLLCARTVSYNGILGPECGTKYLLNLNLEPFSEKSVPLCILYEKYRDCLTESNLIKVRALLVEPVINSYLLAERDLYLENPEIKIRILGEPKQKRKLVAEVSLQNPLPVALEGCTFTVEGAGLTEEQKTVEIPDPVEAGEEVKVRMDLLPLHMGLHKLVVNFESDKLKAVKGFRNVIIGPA
The data set can be described thus: continuous AL5 hydrolysis assay of irreversible TG2 inhibition (kobs vs [I]/α). It counts as biochemical.

Data set [2] can be described thus: parallel artificial membrane permeability assay (PAMPA), at Pharmaron. In kind it is in vitro ADME. Background: PAMPA measures passive passage across an artificial lipid membrane.
The test system of a further data set is human hepatocytes. Details: method as in PMID 36846370. Conditions: cited from earlier work.
The next data set has as its system MDCK-MDR1 cells. Details: method as in PMID 39708924. To be noted: cited from earlier work.
A short description of data set [3]: stability in human hepatocytes, at Pharmaron. It counts as in vitro ADME. Conditions: 20-donor, pooled; for hepatocyte CLint: read-out: In vitro CLint; for half-life: human, hepatocytes, read-out: In vitro t1/2.
Data set [4] is described as follows: incubation in phosphate buffer with no hepatocytes present. It counts as physicochemical. To be noted: phosphate buffer 0.1 M, pH = 8.0, no hepatocytes present.
Data set [5] can be described thus: solubility in inhibition assay conditions and stock solutions. In kind it is physicochemical. To be noted: inhibition assay mixture, DMSO not above 6%.
Where [6] appears, read: irreversible inhibition, AL5 100 μM, pH 6.9, 25 °C, triplicate.
Setting [7] is: supplement, kinetics data and fitting.
[8] abbreviates: Pe in cm s^−1, lower value is more permeable, read-out: −log[Pe (cm s^−1)] (converted).
[9] abbreviates: inhibition efficiency, combined from kinact and KI.

Read-outs that look alike come from different tables or passages of the source.

For the compound `C=CC(=O)NCC(=O)N1CCN(C(=O)C23CC4CC(CC(C4)C2)C3)CC1` [EB-2-16, reference compound], the kinact in data set [1] was 0.0233 s⁻¹. Besides, the KI (inactivation) in data set [1] (setting [6]) came out at 2430 ± 190 nM. Further, in data set [1] (setting [7]), the KI (inactivation) is 2430 ± 190 nM and the kinact/KI was 576 ± 50 × 103 M-1min-1. The Papp in data set [2] (setting [8]) is 1.55 ×10⁻⁶ cm/s. Moreover, the “In vitro t1/2” value with human hepatocytes was >120 (ref. [27]) min. Moreover, in the data set with MDCK-MDR1 cells (MDCK-MDR1 cells), the “susceptibility to P-glycoprotein-mediated efflux” value was “not susceptible to P-glycoprotein-mediated efflux”. In addition, the “diffusion across the membrane of MDCK-MDR1 cells” value in the data set with MDCK-MDR1 cells (bidirectional) is listed as “excellent bidirectional diffusion”.

Regarding `C=CC(=O)NCC(=O)N1CCN(C(=O)C23CC4CC(CC(I)(C4)C2)C3)CC1` [Compound 29, N-2-[4-[(3-Iodoadamantanecarbonyl)-1-piperazinyl]-2-oxoethyl]propenamide], the maximal inactivation rate constant (kinact) in data set [1] was 0.0278 s⁻¹. In data set [1] (setting [6]), the KI (inactivation) was found to be 1400 ± 120 nM. In addition, in data set [1] (setting [7]), the KI (inactivation) is 1400 ± 120 nM and the kinact/KI was 1195 ± 112 × 103 M-1min-1. For the same compound, the Papp in data set [2] (setting [8]) is 5.25 ×10⁻⁶ cm/s. For the same compound, in data set [3], the hepatocyte CLint was 69.2 µL/min/1e6 cells and the half-life was 20 min. The “stability in phosphate buffer” value in data set [4] is recorded as “degrade after 24 hours”.

In the case of `C=CC(=O)NCC(=O)N1CCN(C(=O)C23CC4CC(CC(Cl)(C4)C2)C3)CC1` [Compound 25b, N-2-[4-[(3-Chloroadamantanecarbonyl)-1-piperazinyl]-2-oxoethyl]propenamide], in data set [1], the maximal inactivation rate constant (kinact) was 0.0282 s⁻¹. In data set [1] (setting [6]), the KI (inactivation) is 1790 ± 170 nM. Further, in data set [1] (setting [7]), the KI (inactivation) turned out to be 1790 ± 170 nM and the kinact/KI is reported as 941 ± 101 × 103 M-1min-1. In addition, in data set [2] (Pe in cm s^−1, lower value is more permeable), the “−log[Pe (cm s^−1)]” value worked out at 5.85. For the same compound, the Papp in data set [2] (read-out: Pe) is 1.41 ×10⁻⁶ cm/s. For the same compound, in data set [3], the hepatocyte CLint was 6.91 µL/min/1e6 cells and the half-life was 200 min.

Consider `C=CC(=O)NCC(=O)N1CCN(C(=O)C23CC4CC(CC(Br)(C4)C2)C3)CC1` [Compound 25c, N-2-[4-[(3-Bromoadamantanecarbonyl)-1-piperazinyl]-2-oxoethyl]propenamide], for which the kinact in data set [1] is 0.0119 s⁻¹. Moreover, the KI (inactivation) turned out to be 650 ± 80 nM in data set [1] (setting [6]) and 648 ± 85 nM in data set [1] (setting [7]). The kinact/KI in data set [1] (setting [7]) was 1104 ± 162 × 103 M-1min-1. Besides, in data set [2] (setting [8]), the Papp is 2.19 ×10⁻⁶ cm/s. In addition, the “stability in phosphate buffer” value in data set [4] is reported as “degrade after 24 hours”.

In the case of `C=CC(=O)NCC(=O)N1CCN(C(=O)c2ccc(Oc3ccccc3)cc2)CC1` [Compound 22h, N-2-[4-[((4-Phenoxyphenyl)carbonyl)-1-piperazinyl]-2-oxoethyl]propenamide], the kinact/KI entry in data set [1] (setting [9]) is “INS”. For the same compound, in data set [1] (setting [6]), the KI entry is “INS” and the kinact result is recorded as “INS”. Besides, in data set [5], the “solubility in assay conditions” value is “too insoluble in assay conditions”.

As to `C=CC(=O)NCC(=O)N1CCN(C(=O)C23CC4CC(C2)CC(c2ccccc2)(C4)C3)CC1` [Compound 25d, N-2-[4-[(3-Phenyladamantanecarbonyl)-1-piperazinyl]-2-oxoethyl]propenamide], in data set [1], the inactivation rate constant (kinact) was 0.0112 s⁻¹. The same compound gave a KI (inactivation) in data set [1] (setting [6]) of 690 ± 70 nM. Also, in data set [1] (setting [7]), the KI (inactivation) worked out at 691 ± 67 nM and the kinact/KI is 972 ± 103 × 103 M-1min-1. Further, the Papp in data set [2] (setting [8]) is 13.2 ×10⁻⁶ cm/s. Further, in data set [3], the hepatocyte CLint came out at 29.3 µL/min/1e6 cells and the half-life was about 47 min.

Consider `C=CC(=O)NCC(=O)N1CCN(C(=O)c2ccc(-c3ccc(C)cc3)cc2)CC1` [Compound 21i, N-2-[4-[((4′-Methyl-4-biphenyl)carbonyl)-1-piperazinyl]-2-oxoethyl]propenamide], for which the kinact/KI entry in data set [1] (setting [9]) is on record as “INS”. In addition, in data set [1] (setting [6]), the KI result is listed as “INS” and the kinact result is reported as “INS”. The “solubility in assay conditions” value in data set [5] is “too insoluble in assay conditions”.

With `C=CC(=O)NCC(=O)N1CCN(C(=O)C2CCCCC2)CC1` [Compound 6d, N-2-[4-[(Cyclohexanecarbonyl)-1-piperazinyl]-2-oxoethyl]propenamide], in data set [1], the maximal inactivation rate constant (kinact) was 0.0177 s⁻¹. Also, the KI (inactivation) came out at 7100 ± 1300 nM in data set [1] (setting [6]) and 7140 ± 1340 nM in data set [1] (setting [7]). Besides, the kinact/KI in data set [1] (setting [7]) was 149 ± 31 × 103 M-1min-1.

As for `C=CC(=O)NCC(=O)N1CCN(C(=O)c2ccc(-c3ccccc3C)cc2)CC1` [Compound 21g, N-2-[4-[((2′-Methyl-4-biphenyl)carbonyl)-1-piperazinyl]-2-oxoethyl]propenamide], the inactivation rate constant (kinact) in data set [1] was 0.0217 s⁻¹. Also, the KI (inactivation) in data set [1] (setting [6]) and in data set [1] (setting [7]) was 54100 ± 14600 nM each time. Besides, the kinact/KI in data set [1] (setting [7]) was 24.1 ± 7.3 × 103 M-1min-1.

Consider `C=CC(=O)NCC(=O)N1CCN(C(=O)c2cccc(-c3ccc(C)cc3)c2)CC1` [Compound 21f, N-2-[4-[((4′-Methyl-3-biphenyl)carbonyl)-1-piperazinyl]-2-oxoethyl]propenamide], for which the kinact in data set [1] was 0.0092 s⁻¹. The KI (inactivation) in data set [1] (setting [6]) was found to be 2300 ± 600 nM. Besides, in data set [1] (setting [7]), the KI (inactivation) was found to be 2290 ± 660 nM and the kinact/KI is listed as 241 ± 74 × 103 M-1min-1.

As for `C=CC(=O)NCC(=O)N1CCN(C(=O)c2cccc(Oc3ccccc3)c2)CC1` [Compound 22e, N-2-[4-[((3-Phenoxyphenyl)carbonyl)-1-piperazinyl]-2-oxoethyl]propenamide], the kinact in data set [1] was 0.0223 s⁻¹. For the same compound, the KI (inactivation) in data set [1] (setting [6]) and in data set [1] (setting [7]) was 11900 ± 4000 nM each time. In addition, the kinact/KI in data set [1] (setting [7]) is 112 ± 41 × 103 M-1min-1.

By kinact is commonly meant the maximal first-order rate at which the target is inactivated.
